Data from patent publication US8716316B2 (Hoffmann-La Roche Inc., priority 2009, dated 2014).

Biological target: T1, human mGlu5a receptor (Homo sapiens, UniProt P41594)
T1 construct: expressed in transfected cells
Experiment: Intracellular Ca2+ mobilization assay
Type: cell-based
Conditions: for Emax: HEK293, read-out: Efficacy (%); for EC50: HEK-293 cells stably transfected with human mGlu5a receptor, pre-incubation 10-30 min with test compound, then L-glutamate at EC20 (typically around 80 μM), Fluo-4AM fluorescence, read-out: EC50 (nM) mGluR5 PAM
Procedure: A monoclonal HEK-293 cell line stably transfected with a cDNA encoding for the human mGlu5a receptor was generated; for the work with mGlu5 Positive Allosteric Modulators (PAMs), a cell line with low receptor expression levels and low constitutive receptor activity was selected to allow the differentiation of agonistic versus PAM activity. Cells were cultured according to standard protocols (Freshney, 2000) in Dulbecco's Modified Eagle Medium with high glucose supplemented with 1 mM glutamine, 10% (vol/vol) heat-inactivated bovine calf serum, Penicillin/Streptomycin, 50 μg/ml hygromycin and 15 μg/ml blasticidin (all cell culture reagents and antibiotics from Invitrogen, Basel, Switzerland).
About 24 hrs before an experiment, 5×10^4 cells/well were seeded in poly-D-lysine coated, black/clear-bottomed 96-well plates. The cells were loaded with 2.5 μM Fluo-4AM in loading buffer (1×HBSS, 20 mM HEPES) for 1 hr at 37° C. and washed five times with loading buffer. The cells were transferred into a Functional Drug Screening System 7000 (Hamamatsu, Paris, France), and 11 half logarithmic serial dilutions of test compound at 37° C. were added and the cells were incubated for 10-30 min. with on-line recording of fluorescence. Following this pre-incubation step, the agonist L-glutamate was added to the cells at a concentration corresponding to EC20 (typically around 80 μM) with on-line recording of fluorescence; in order to account for day-to-day variations in the responsiveness of cells, the EC20 of glutamate was determined immediately ahead of each experiment by recording of a full dose-response curve of glutamate.
Responses were measured as peak increase in fluorescence minus basal (i.e. fluorescence without addition of L-glutamate), normalized to the maximal stimulatory effect obtained with saturating concentrations of L-glutamate. Graphs were plotted with the % maximal stimulatory using XLfit, a curve fitting program that iteratively plots the data using Levenburg Marquardt algorithm. The single site competition analysis equation used was y=A+((B−A)/(1+((x/C)D))), where y is the % maximal stimulatory effect, A is the minimum y, B is the maximum y, C is the EC50, x is the log 10 of the concentration of the competing compound and D is the slope of the curve (the Hill Coefficient). From these curves the EC50 (concentration at which half maximal stimulation was achieved), the Hill coefficient as well as the maximal response in % of the maximal stimulatory effect obtained with saturating concentrations of L-glutamate were calculated.
A depression of the signal observed after addition of the EC20 concentration of L-glutamate was indicative of an inhibitory activity of the test compound.

[1] = maximal response in % of the maximal stimulatory effect obtained with saturating concentrations of L-glutamate, HEK-293 human mGlu5a cells, L-glutamate at EC20

T1 sequence (P41594 21-1180 isoform P41594-2 limits assumed): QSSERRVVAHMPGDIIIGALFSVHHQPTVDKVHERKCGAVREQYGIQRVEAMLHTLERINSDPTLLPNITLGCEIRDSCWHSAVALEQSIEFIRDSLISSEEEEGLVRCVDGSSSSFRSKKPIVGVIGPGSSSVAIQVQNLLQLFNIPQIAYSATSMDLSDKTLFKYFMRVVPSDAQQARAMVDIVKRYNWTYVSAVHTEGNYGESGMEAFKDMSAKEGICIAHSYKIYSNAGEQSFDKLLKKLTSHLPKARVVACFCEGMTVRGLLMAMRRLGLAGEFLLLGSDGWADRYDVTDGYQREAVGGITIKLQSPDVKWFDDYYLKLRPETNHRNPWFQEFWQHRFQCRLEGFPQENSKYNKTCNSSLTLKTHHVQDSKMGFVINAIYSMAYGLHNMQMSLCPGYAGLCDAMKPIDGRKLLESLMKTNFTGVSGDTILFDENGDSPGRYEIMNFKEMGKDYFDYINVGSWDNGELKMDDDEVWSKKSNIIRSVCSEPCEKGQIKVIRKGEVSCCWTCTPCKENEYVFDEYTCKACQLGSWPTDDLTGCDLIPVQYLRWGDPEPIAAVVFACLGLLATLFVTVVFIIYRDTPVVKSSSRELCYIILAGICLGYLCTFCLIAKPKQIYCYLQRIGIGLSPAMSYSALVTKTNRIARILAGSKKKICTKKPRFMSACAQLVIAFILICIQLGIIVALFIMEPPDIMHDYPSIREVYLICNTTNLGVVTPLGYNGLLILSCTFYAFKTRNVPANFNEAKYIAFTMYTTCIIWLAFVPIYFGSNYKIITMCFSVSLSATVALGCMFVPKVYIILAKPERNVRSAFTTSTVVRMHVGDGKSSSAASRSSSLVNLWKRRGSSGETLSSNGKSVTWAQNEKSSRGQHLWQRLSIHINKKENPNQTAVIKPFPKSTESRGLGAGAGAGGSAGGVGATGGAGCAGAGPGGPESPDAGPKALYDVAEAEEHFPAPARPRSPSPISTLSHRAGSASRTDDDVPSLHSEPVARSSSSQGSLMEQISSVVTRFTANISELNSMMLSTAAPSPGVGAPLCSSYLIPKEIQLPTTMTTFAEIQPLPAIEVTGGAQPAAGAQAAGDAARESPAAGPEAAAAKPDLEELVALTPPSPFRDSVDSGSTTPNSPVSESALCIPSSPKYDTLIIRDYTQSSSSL

Row | SMILES | Emax [1] [%] | EC50 [nM] | Efficacy (%) [1] [%]
1 | COC1CCCC(OC)C1Nc1ncc(C#Cc2ccccc2)cn1 (mixture of isomers) [Example 5, (2,6-dimethoxy-cyclohexyl)-(5-phenylethynyl-pyrimidin-2-yl)-amine] | 105 | 345 | –
2 | OC1CCCCC1Nc1ncc(C#Cc2ccccc2)cn1 (mixture of isomers) [Example 10, 2-(5-phenylethynyl-pyrimidin-2-ylamino)-cyclohexanol] | 72 | 340 | –
3 | OC1CCC(Nc2ncc(C#Cc3ccccc3)cn2)C1 (mixture of isomers) [Example 11, 3-(5-phenylethynyl-pyrimidin-2-ylamino)-cyclopentanol] | 78 | 322 | –
4 | OC1CCCC1Nc1ncc(C#Cc2ccccc2)cn1 (mixture of isomers) [Example 12, 2-(5-phenylethynyl-pyrimidin-2-ylamino)-cyclopentanol] | 80 | 560 | –
5 | CC1(C)CC(Nc2ncc(C#Cc3ccccc3)cn2)CCO1 (racemic) [Example 3, rac-(2,2-Dimethyl-tetrahydro-pyran-4-yl)-(5-phenylethynyl-pyrimidin-2-yl)-amine] | 89 | 172 | –
6 | C(#Cc1cnc(N[C@H]2C[C@@H]3CC[C@H]2O3)nc1)c1ccccc1 (racemic) [Example 4, rac-7-Oxa-bicyclo[2.2.1]hept-2-yl-(5-phenylethynyl-pyrimidin-2-yl)-amine] | 113 | 195 | –
7 | CC1(C)CC(Nc2ncc(C#Cc3ccccc3)cn2)CCC1O (racemic) [Example 16, 2,2-Dimethyl-4-(5-phenylethynyl-pyrimidin-2-ylamino)-cyclohexanol] | 113 | 324 | –
8 | OC1CCC(Oc2ncc(C#Cc3ccccc3)cn2)CC1 (racemic) [Example 22, rac-4-(5-Phenylethynyl-pyrimidin-2-yloxy)-cyclohexanol] | 121 | 168 | –
9 | OC1CCC(Oc2ncc(C#Cc3ccccc3)cc2F)CC1 (racemic) [Example 27, rac-4-(3-Fluoro-5-phenylethynyl-pyridin-2-yloxy)-cyclohexanol] | 90 | 200 | –
10 | CC1CCN(Cc2ccc(C#Cc3ccccc3)cn2)C1=O (racemic) [Example 39, rac-3-Methyl-1-(5-phenylethynyl-pyridin-2-ylmethyl)-pyrrolidin-2-one] | 120 | 93 | –
11 | CC(c1ccc(C#Cc2ccccc2)cn1)N1CCOC1=O (racemic) [Example 41, rac-3-[1-(5-Phenylethynyl-pyridin-2-yl)-ethyl]-oxazolidin-2-one] | 59 | 94 | –
12 | CC1(C)CC(Nc2ncc(C#Cc3ccccc3)cn2)CCC1O (single isomer, unassigned) [Example 17, (1S,4S or 1R,4R)-2,2-Dimethyl-4-(5-phenylethynyl-pyrimidin-2-ylamino)-cyclohexanol] | – | 94 | 93
13 | C(#Cc1cnc(NC2CCCC2)nc1)c1ccccc1 [Example 1, Cyclopentyl-(5-phenylethynyl-pyrimidin-2-yl)-amine] | 40 | 26 | –
14 | C(#Cc1cnc(NC2CCOCC2)nc1)c1ccccc1 [Example 2, (5-Phenylethynyl-pyrimidin-2-yl)-(tetrahydro-pyran-4-yl)-amine] | 46 | 65 | –
15 | OC[C@H]1CC[C@H](Nc2ncc(C#Cc3ccccc3)cn2)CC1 [Example 6, trans-[4-(5-Phenylethynyl-pyrimidin-2-ylamino)-cyclohexyl]-methanol] | 147 | 844 | –
16 | O[C@H]1CC[C@H](Nc2ncc(C#Cc3ccccc3)cn2)CC1 [Example 7, trans-4-(5-Phenylethynyl-pyrimidin-2-ylamino)-cyclohexanol] | 100 | 179 | –
17 | C(#Cc1ccc(NC2CCCC2)nc1)c1ccccc1 [Example 13, Cyclopentyl-(5-phenylethynyl-pyridin-2-yl)-amine] | 43 | 43 | –

Row | SMILES | Emax [1] [%] | EC50 [nM] | Efficacy (%) [1] [%]
18 | C(#Cc1ccc(NC2CCOCC2)nc1)c1ccccc1 [Example 14, (5-Phenylethynyl-pyridin-2-yl)-(tetrahydro-pyran-4-yl)-amine] | 59 | 110 | –
19 | C(#Cc1cnc(NC2CCCCC2)nc1)c1ccccc1 [Example 15, Cyclohexyl-(5-phenylethynyl-pyrimidin-2-yl)-amine] | 112 | 52 | –
20 | O[C@H]1CC[C@H](Nc2ncc(C#Cc3ccccc3)cc2F)CC1 [Example 18, trans-4-(3-Fluoro-5-phenylethynyl-pyridin-2-ylamino)-cyclohexanol] | 116 | 192 | –
21 | C[C@H]1CC[C@H](Nc2ncc(C#Cc3ccccc3)cn2)CC1 [Example 19, trans-(4-Methyl-cyclohexyl)-(5-phenylethynyl-pyrimidin-2-yl)-amine] | 55 | 75 | –
22 | C(#Cc1cnc(NCC2CCOCC2)nc1)c1ccccc1 [Example 20, (5-Phenylethynyl-pyrimidin-2-yl)-(tetrahydro-pyran-4-ylmethyl)-amine] | 80 | 206 | –
23 | CC1(CNc2ncc(C#Cc3ccccc3)cn2)COC1 [Example 21, (3-Methyl-oxetan-3-ylmethyl)-(5-phenylethynyl-pyrimidin-2-yl)-amine] | 45 | 78 | –
24 | O[C@H]1CC[C@H](Oc2ncc(C#Cc3ccccc3)cn2)CC1 [Example 23, trans-4-(5-Phenylethynyl-pyrimidin-2-yloxy)-cyclohexanol] | 94 | 110 | –
25 | CC1(COc2ncc(C#Cc3ccccc3)cn2)COC1 [Example 24, 2-(3-Methyl-oxetan-3-ylmethoxy)-5-phenylethynyl-pyrimidine] | 88 | 101 | –
26 | O[C@H]1C[C@H](COc2ncc(C#Cc3ccccc3)cn2)C1 [Example 25, trans-3-(5-Phenylethynyl-pyrimidin-2-yloxymethyl)-cyclobutanol] | 133 | 291 | –
27 | OC[C@H]1C[C@H](Oc2ncc(C#Cc3ccccc3)cn2)C1 [Example 26, trans-[3-(5-Phenylethynyl-pyrimidin-2-yloxy)-cyclobutyl]-methanol] | 117 | 99 | –
28 | C(#Cc1ccc(OC2CCCCC2)nc1)c1ccccc1 [Example 28, 2-Cyclohexyloxy-5-phenylethynyl-pyridine] | 61 | 45 | –
29 | CC1(COc2ncc(C#Cc3ccccc3)cc2F)COC1 [Example 29, 3-Fluoro-2-(3-methyl-oxetan-3-ylmethoxy)-5-phenylethynyl-pyridine] | 71 | 135 | –
30 | O=C1COCCN1Cc1ccc(C#Cc2ccccc2)cn1 [Example 30, 4-(5-Phenylethynyl-pyridin-2-ylmethyl)-morpholin-3-one] | 121 | 83 | –
31 | O=C1OCCN1Cc1ccc(C#Cc2ccccc2)cn1 [Example 31, 3-(5-Phenylethynyl-pyridin-2-ylmethyl)-oxazolidin-2-one] | 122 | 56 | –
32 | O=C1CCCCN1Cc1ccc(C#Cc2ccccc2)cn1 [Example 32, 1-(5-Phenylethynyl-pyridin-2-ylmethyl)-piperidin-2-one] | 145 | 268 | –
33 | CC1(C)CC(=O)N(Cc2ccc(C#Cc3ccccc3)cn2)C1 [Example 33, 4,4-Dimethyl-1-(5-phenylethynyl-pyridin-2-ylmethyl)-pyrrolidin-2-one] | 177 | 132 | –
